Like-named read-outs stand apart in the source and are kept apart here.
Columns and labels:
[1] = Metabolic stability in monkey liver microsomes; type: in vitro ADME, cynomolgus monkey
Protocol: (§1) The metabolic stability of test compounds was examined in CD-1 mouse, Sprague Dawley rat, Beagle dog, cynomolgus monkey, and human liver microsomes. Test compound (final concentration 1 μM) was mixed with diluted liver microsomes from each of the 5 species and a small aliquot was taken at 0, 5, 10, 20, 30, and 60 minutes for LC/MS/MS analysis. Intrinsic clearance and half-life were calculated.

[2] = Metabolic stability in dog liver microsomes; type: in vitro ADME; settings: Beagle
Protocol: as §1

[3] = Metabolic stability in rat liver microsomes; type: in vitro ADME; settings: Sprague Dawley
Protocol: as §1

[4] = Metabolic stability in human liver microsomes; type: in vitro ADME
Protocol: as §1

[5] = test system: IFNγ-induced NO production in Raw 264.7 cells; experiment: Nitric oxide assay: suppression of IFNγ-induced NO production (Griess nitrite, adjusted to live cell numbers); type: cell-based; settings: Mus musculus, RAW264.7, 2 h pretreatment, IFNγ 10 ng/ml for 24 hours
How it was run: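 Raw 264.7 cells in DMEM + 2% FBS were pretreated 2 h with compound (10-point, 1:4 dilution from 100 nM), then stimulated with 10 ng/ml mouse IFNγ for 24 h. Media nitrite was read by Griess and normalised to CellTiter-Glo viability. IC50 from four-parameter fit of % inhibition.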

CYP1A2 = target: T1, CYP1A2 (Homo sapiens, UniProt P05177); experiment: CYP450 enzyme inhibition in liver microsomes (cocktail probe incubation); type: in vitro ADME; settings: species not given, 0.05-50 μM tested
T1 construct: studied in liver microsomes of CD-1 mouse, Sprague Dawley rat, Beagle dog, cynomolgus monkey, and human; from tissue; host or cells: liver microsomes
T1 sequence (P05177 1-516): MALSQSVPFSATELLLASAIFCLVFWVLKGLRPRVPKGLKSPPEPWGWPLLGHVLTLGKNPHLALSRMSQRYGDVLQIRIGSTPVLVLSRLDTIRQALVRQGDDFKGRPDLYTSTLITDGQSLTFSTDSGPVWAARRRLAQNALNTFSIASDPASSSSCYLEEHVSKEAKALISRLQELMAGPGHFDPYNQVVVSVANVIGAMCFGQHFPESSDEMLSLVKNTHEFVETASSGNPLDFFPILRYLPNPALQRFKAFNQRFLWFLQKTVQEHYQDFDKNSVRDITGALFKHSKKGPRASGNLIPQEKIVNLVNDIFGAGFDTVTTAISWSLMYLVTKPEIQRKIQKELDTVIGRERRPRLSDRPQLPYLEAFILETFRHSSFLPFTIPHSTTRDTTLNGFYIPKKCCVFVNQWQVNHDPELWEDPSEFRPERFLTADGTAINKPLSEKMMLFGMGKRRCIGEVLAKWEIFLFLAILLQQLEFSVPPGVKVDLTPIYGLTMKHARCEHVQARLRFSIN
How it was run: (§2)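 Liver microsomes (CD-1 mouse, SD rat, Beagle dog, cynomolgus monkey, human) incubated with a cocktail of CYP-specific probe substrates. Test compounds at seven concentrations (0.05, 0.15, 0.5, 1.5, 5, 15, 50 μM). Known inhibitors included as positive controls at a single concentration above their IC50.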

CYP3A4 = target: T2, CYP3A4 (Homo sapiens, UniProt P08684); experiment: as above; type: in vitro ADME; settings: species not given, 0.05-50 μM tested
T2 construct: studied in liver microsomes of CD-1 mouse, Sprague Dawley rat, Beagle dog, cynomolgus monkey, and human; from tissue; host or cells: liver microsomes
T2 sequence (P08684 whole entry): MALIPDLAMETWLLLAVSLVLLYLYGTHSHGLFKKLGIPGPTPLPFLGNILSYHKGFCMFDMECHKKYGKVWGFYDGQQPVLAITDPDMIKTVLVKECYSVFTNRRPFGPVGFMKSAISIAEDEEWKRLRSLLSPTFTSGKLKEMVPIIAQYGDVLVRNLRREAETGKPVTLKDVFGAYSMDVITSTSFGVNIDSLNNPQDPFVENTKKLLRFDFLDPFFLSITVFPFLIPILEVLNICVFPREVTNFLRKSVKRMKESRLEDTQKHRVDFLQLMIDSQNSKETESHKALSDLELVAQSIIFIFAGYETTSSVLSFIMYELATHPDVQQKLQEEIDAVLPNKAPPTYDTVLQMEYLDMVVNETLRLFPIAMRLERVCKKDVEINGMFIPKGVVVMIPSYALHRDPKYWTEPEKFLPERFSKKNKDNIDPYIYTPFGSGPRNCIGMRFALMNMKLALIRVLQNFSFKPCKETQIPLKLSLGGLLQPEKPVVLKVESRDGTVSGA
How it was run: as §2

CYP2D6 = target: T3, CYP2D6 (Homo sapiens, UniProt P10635); experiment: as above; type: in vitro ADME; settings: species not given, 0.05-50 μM tested
T3 construct: studied in liver microsomes of CD-1 mouse, Sprague Dawley rat, Beagle dog, cynomolgus monkey, and human; from tissue; host or cells: liver microsomes
T3 sequence (P10635 whole entry): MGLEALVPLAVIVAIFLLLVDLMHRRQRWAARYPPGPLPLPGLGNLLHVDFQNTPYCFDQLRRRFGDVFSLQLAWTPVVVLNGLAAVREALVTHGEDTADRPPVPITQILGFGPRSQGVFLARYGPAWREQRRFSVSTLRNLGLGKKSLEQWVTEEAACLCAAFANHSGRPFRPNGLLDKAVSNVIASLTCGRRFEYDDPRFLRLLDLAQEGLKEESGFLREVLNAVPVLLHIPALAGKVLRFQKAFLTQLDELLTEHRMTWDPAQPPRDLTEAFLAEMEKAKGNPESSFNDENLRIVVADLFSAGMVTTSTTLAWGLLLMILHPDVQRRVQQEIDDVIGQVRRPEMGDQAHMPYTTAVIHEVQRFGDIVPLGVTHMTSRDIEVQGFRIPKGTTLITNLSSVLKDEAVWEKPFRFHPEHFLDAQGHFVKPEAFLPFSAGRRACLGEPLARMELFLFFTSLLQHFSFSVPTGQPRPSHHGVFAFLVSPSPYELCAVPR
How it was run: as §2

CYP2C19 = target: T4, CYP2C19 (Homo sapiens, UniProt P33261); experiment: as above; type: in vitro ADME; settings: species not given, 0.05-50 μM tested
T4 construct: studied in liver microsomes of CD-1 mouse, Sprague Dawley rat, Beagle dog, cynomolgus monkey, and human; from tissue; host or cells: liver microsomes
T4 sequence (P33261 whole entry): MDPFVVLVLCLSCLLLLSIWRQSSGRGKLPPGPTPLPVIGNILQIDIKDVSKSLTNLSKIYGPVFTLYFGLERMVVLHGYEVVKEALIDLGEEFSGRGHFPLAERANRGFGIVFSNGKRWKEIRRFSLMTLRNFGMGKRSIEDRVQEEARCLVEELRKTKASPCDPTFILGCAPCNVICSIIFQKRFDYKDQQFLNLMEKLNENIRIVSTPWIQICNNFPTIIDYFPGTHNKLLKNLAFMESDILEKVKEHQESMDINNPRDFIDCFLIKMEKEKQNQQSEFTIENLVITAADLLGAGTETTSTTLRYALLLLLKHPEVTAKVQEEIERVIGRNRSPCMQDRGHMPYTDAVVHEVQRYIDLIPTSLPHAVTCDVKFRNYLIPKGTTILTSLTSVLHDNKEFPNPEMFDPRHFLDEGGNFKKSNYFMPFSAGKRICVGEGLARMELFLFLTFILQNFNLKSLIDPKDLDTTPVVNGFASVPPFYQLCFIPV
How it was run: as §2

CYP2C9 = target: T5, CYP2C9 (Homo sapiens, UniProt P11712); experiment: as above; type: in vitro ADME; settings: species not given, 0.05-50 μM tested
T5 construct: studied in liver microsomes of CD-1 mouse, Sprague Dawley rat, Beagle dog, cynomolgus monkey, and human; from tissue; host or cells: liver microsomes
T5 sequence (P11712 whole entry): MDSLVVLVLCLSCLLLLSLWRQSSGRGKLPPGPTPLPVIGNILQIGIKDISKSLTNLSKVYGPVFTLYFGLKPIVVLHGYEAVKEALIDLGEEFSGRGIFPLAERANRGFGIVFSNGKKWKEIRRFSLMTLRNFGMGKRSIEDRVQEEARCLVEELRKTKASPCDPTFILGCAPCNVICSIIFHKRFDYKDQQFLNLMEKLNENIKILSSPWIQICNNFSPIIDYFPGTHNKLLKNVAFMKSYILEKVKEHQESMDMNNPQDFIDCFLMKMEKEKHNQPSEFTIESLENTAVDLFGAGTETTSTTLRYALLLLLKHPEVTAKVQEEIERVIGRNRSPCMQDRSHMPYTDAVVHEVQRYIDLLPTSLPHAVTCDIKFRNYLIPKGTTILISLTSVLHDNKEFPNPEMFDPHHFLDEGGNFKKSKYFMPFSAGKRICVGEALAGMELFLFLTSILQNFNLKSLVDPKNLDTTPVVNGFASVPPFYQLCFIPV
How it was run: as §2

[6] = Pharmacokinetic studies in Sprague Dawley rats (oral gavage and IV); type: in vivo; settings: rat, male SD rats, plasma; for AUC(0-t): read-out: AUC0-24 h; for bioavailability: oral 5 mg/kg vs IV 1 mg/kg, read-out: Bioavailibility F %
How it was run: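 Male SD rats, fasted overnight, dosed 5 mg/kg oral gavage in 0.5% methylcellulose or 1 mg/kg IV in 5% DMSO/5% Solutol/90% saline, 3 per group. Plasma sampled predose and 0.5-24 h postdose, LC/MS/MS quantified; PK parameters from concentration-time data.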

NQO1 = NQO1 activity assay in Raw264.7 cell lysates; type: cell-based; settings: Mus musculus; Raw264.7 cells, 48 hours treatment
Protocol: Raw264.7 cells were seeded in DMEM+10% FBS in 96-well plates at a density of 10,000 cells per well. 6 hours after plating, cells were treated with DMSO or test compounds (top dose 100 nM, 1:4 serial dilution, 8-point) for 48 hours. NQO1 activity was then detected in cell lysates using NQO1 activity assay kit (Abeam, Cat#ab184867). NQO1 activity was then plotted against compound concentration, and EC50 values were calculated using four-parameter algorithm in Graphpad Prism.

[7] = Metabolic stability in mouse liver microsomes; type: in vitro ADME, CD-1 mouse; settings: CD-1
Protocol: as §1

CC1(C)C(=O)C(C#N)=C[C@]2(C)C3=CC(=O)[C@@H]4[C@@H]5C[C@@](C)(N6CC(O)C6)CC[C@]5(C)CC[C@@]4(C)[C@]3(C)CC[C@@H]12 [Example 26, (4aR,6aS,6bR,8aS,11S,12aS,14bS)-11-(3-hydroxyazetidin-1-yl)-4,4,6a,6b,8a,11,14b-heptamethyl-3,13-dioxo-3,4,4a,5,6,6a,6b,7,8,8a,9,10,11,12,12a,12b,13,14b-octadecahydropicene-2-carbonitrile]
CLint scaled at 1 μM [1]: 752 mL/min/kg
half-life at 1 μM [1]: 2.5 min
CLint scaled at 1 μM [2]: 77.3 mL/min/kg
half-life at 1 μM [2]: 25.8 min
CLint scaled at 1 μM [3]: 161 mL/min/kg
half-life at 1 μM [3]: 15.5 min
CLint scaled at 1 μM [4]: 184 mL/min/kg
half-life at 1 μM [4]: 6.8 min
IC50 [5]: < 0.01 µM
IC50 (CYP1A2): > 50 µM
IC50 (CYP3A4): 14.6 µM
IC50 (CYP2D6): > 50 µM
IC50 (CYP2C19): > 50 µM
IC50 (CYP2C9): 27.6 µM
C0 ([6]; IV (1 mg/kg)): 1040 ng/mL
clearance ([6]; IV (1 mg/kg)): 56.3 mL/min/kg
half-life ([6]; IV (1 mg/kg)): 282 min
AUC(0-t) ([6]; IV (1 mg/kg)): 294 ng·h/mL
Cmax ([6]; Oral (5 mg/kg)): 57 ng/mL
half-life ([6]; Oral (5 mg/kg)): 216 min
AUC(0-t) ([6]; Oral (5 mg/kg)): 270 ng·h/mL
bioavailability [6]: 18.3%
EC50 (NQO1): < 0.01 µM
CLint scaled at 1 μM [7]: 402 mL/min/kg
half-life at 1 μM [7]: 13.7 min

Cc1nnc([C@@]2(C)CC[C@]3(C)CC[C@]4(C)[C@H](C(=O)C=C5[C@@]6(C)C=C(C#N)C(=O)C(C)(C)[C@@H]6CC[C@]54C)[C@@H]3C2)o1 [Example 1, (4aR,6aS,6bR,8aS,11S,12aS,12bR,14bS)-4,4,6a,6b,8a,11,14b-heptamethyl-11-(5-methyl-1,3,4-oxadiazol-2-yl)-3,13-dioxo-3,4,4a,5,6,6a,6b,7,8,8a,9,10,11,12,12a,12b,13,14b-octadecahydropicene-2-carbonitrile]
CLint scaled at 1 μM [1]: 269 mL/min/kg
half-life at 1 μM [1]: 7 min
CLint scaled at 1 μM [2]: 37 mL/min/kg
half-life at 1 μM [2]: 54 min
CLint scaled at 1 μM [3]: 42 mL/min/kg
half-life at 1 μM [3]: 59.4 min
CLint scaled at 1 μM [4]: 168 mL/min/kg
half-life at 1 μM [4]: 7.4 min
IC50 [5]: < 0.01 µM
IC50 (CYP1A2): > 50 µM
IC50 (CYP3A4): 1 µM
IC50 (CYP2D6): 15 µM
IC50 (CYP2C19): 11.8 µM
IC50 (CYP2C9): 2.7 µM
C0 ([6]; IV (1 mg/kg)): 349 ng/mL
clearance ([6]; IV (1 mg/kg)): 63.8 mL/min/kg
half-life ([6]; IV (1 mg/kg)): 102 min
AUC(0-t) ([6]; IV (1 mg/kg)): 258 ng·h/mL
Cmax ([6]; Oral (5 mg/kg)): 170 ng/mL
half-life ([6]; Oral (5 mg/kg)): 132 min
AUC(0-t) ([6]; Oral (5 mg/kg)): 1100 ng·h/mL
bioavailability [6]: 83.8%
EC50 (NQO1): < 0.01 µM
CLint scaled at 1 μM [7]: 423 mL/min/kg
half-life at 1 μM [7]: 13 min

CC(=NC#N)NC[C@]12CCC(C)(C)C[C@H]1[C@H]1C(=O)C=C3[C@@]4(C)C=C(C#N)C(=O)C(C)(C)[C@@H]4CC[C@@]3(C)[C@]1(C)CC2 [Example 4, N′-cyano-N-(((4aS,6aR,6bS,8aR,12aS,14aR,14bS)-11-cyano-2,2,6a,6b,9,9,12a-heptamethyl-10,14-dioxo-1,3,4,5,6,6a,6b,7,8,8a,9,10,12a,14,14a,14b-hexadecahydropicen-4a(2H)-yl)methyl)acetimidamide]
CLint scaled at 1 μM [1]: 104 mL/min/kg
half-life at 1 μM [1]: 18.1 min
CLint scaled at 1 μM [2]: 101 mL/min/kg
half-life at 1 μM [2]: 19.7 min
CLint scaled at 1 μM [3]: 38.8 mL/min/kg
half-life at 1 μM [3]: 64.3 min
CLint scaled at 1 μM [4]: 34.2 mL/min/kg
half-life at 1 μM [4]: 36.5 min
IC50 [5]: < 0.01 µM
IC50 (CYP1A2): > 50 µM
IC50 (CYP3A4): 3.3 µM
IC50 (CYP2D6): 2.2 µM
IC50 (CYP2C19): 4.5 µM
IC50 (CYP2C9): 1.6 µM
C0 ([6]; IV (1 mg/kg)): 747 ng/mL
clearance ([6]; IV (1 mg/kg)): 50.9 mL/min/kg
half-life ([6]; IV (1 mg/kg)): 192 min
AUC(0-t) ([6]; IV (1 mg/kg)): 292 ng·h/mL
Cmax ([6]; Oral (5 mg/kg)): 51 ng/mL
half-life ([6]; Oral (5 mg/kg)): 174 min
AUC(0-t) ([6]; Oral (5 mg/kg)): 214 ng·h/mL
bioavailability [6]: 14.6%
EC50 (NQO1): 0.01 to 0.1 µM
CLint scaled at 1 μM [7]: 147 mL/min/kg
half-life at 1 μM [7]: 37.3 min

Reference: US20220017566A1, “TERPINOID DERIVATIVES AND USES THEREOF” (SICHUAN HAISCO PHARMACEUTICAL CO., LTD., priority 2018, published 2022)
